What was measured:
[1] = In vitro inhibitory activity against Factor Xa
[2] = Bioavailability in rat; assay type: ADME, organism-based; conditions: in vivo
[3] = Vz of compound was determined in rat; assay type: ADME, organism-based; conditions: in vivo, read-out: Vz
[4] = Plasma clearance of compound was determined in rat; assay type: ADME, organism-based
[5] = Half-life of compound was determined in rat; assay type: ADME; conditions: in vivo
Rattus norvegicus = species on record: Rattus norvegicus; test: In vitro anticoagulant activity of compound was determined in rat; assay type: functional
[6] = Binding affinity of compound towards Factor Xa

| IC50 [1] [nM] | bioavailability [2] [%] | Vd [3] [L/kg] | clearance [4] [mL/min/kg] | half-life [5] [h] | Ki [6] [nM] | SMILES | TG 2X lag (Rattus norvegicus) [µM] | 2X PT (Rattus norvegicus) [µM] |
| --- | --- | --- | --- | --- | --- | --- | --- | --- |
| 12 | 2.67 | 5.4 | 35 | 1.77 | 7.55 | NS(=O)(=O)c1ccccc1-c1ccc(C(=O)NCCC(=O)Nc2ccc(Br)cn2)cc1 | 14 |  |
| 1.7 | 25.9 | 14 | 178 | 1.18 | 0.4 | CN(C)Cc1ccccc1-c1ccc(C(=O)N[C@H](CC(=O)Nc2ccc(Cl)cn2)C(=O)N2CCCCC2)cc1 | 1 | 1.74 |
